Bounds are passed on as bounds.

Data set [1] in a line: Toxicity in sheep erythrocytes assessed as hemolysis. The class given is cell-based, Ovis aries, Erythrocyte. The note with it: for HD100: erythrocyte; for HC50: sheep erythrocytes, read-out: HD50 (the source's name).
Data set [2] in a line: Toxicity in sheep erythrocytes assessed as hemolysis at >500 ug/mL. The class given is cell-based, Ovis aries, Erythrocyte. The following applies: read-out: Activity.

For the compound `COC(=O)[C@H]1O[C@@H](O[C@H]2[C@@H](O)C[C@]3(C)[C@H]4CC=C5[C@@H]6CC(C)(C)CC[C@]6(C(=O)O)CC[C@@]5(C)[C@]4(C)CC[C@H]3C2(C)C)[C@H](O)[C@@H](O[C@@H]2O[C@H](CO)[C@H](O)[C@H](O)[C@H]2O)[C@@H]1O`, in data set [1], the HD100 was 303 µM and the HC50 amounted to 157 µM.

Take `CC1(C)CC[C@]2(C(=O)O)CC[C@]3(C)C(=CC[C@@H]4[C@@]5(C)CC[C@H](O[C@@H]6O[C@H](C(=O)O)[C@@H](O)[C@H](O)[C@H]6O)[C@@](C)(CO)C5CC[C@]43C)[C@@H]2C1` (stereo not given in full): in data set [1], the HD100 amounted to 116 µM and the HC50 stood at 93 µM.

`CC1(C)CC[C@]2(C(=O)O)CC[C@]3(C)C(=CC[C@@H]4[C@@]5(C)CC[C@H](O[C@@H]6O[C@H](C(=O)O)[C@@H](O)[C@H](O[C@@H]7O[C@H](CO)[C@H](O)[C@H](O)[C@H]7O)[C@H]6O)[C@@](C)(CO)[C@@H]5CC[C@]43C)[C@@H]2C1`: in data set [1], the HD100 is 93 µM and the HC50 stood at 45 µM.

For the compound `CC1(C)CC[C@]2(C(=O)O[C@@H]3O[C@H](CO)[C@@H](O)[C@H](O)[C@H]3O)CC[C@]3(C)C(=CC[C@@H]4[C@@]5(C)C[C@H](O)[C@H](O[C@@H]6O[C@H](CO)[C@@H](O)[C@H](O[C@@H]7O[C@H](CO)[C@H](O)[C@H](O)[C@H]7O)[C@H]6O)[C@@](C)(CO)[C@@H]5CC[C@]43C)[C@@H]2C1`, in data set [1], the HD100 is above 513 µM. In addition, the hemolysis in data set [2] amounted to 10%.

On to `CC1(C)CC[C@]2(C(=O)O[C@@H]3O[C@H](CO)[C@@H](O)[C@H](O)[C@H]3O)CC[C@]3(C)C(=CC[C@@H]4[C@@]5(C)CC[C@H](O[C@@H]6O[C@H](C(=O)O)[C@@H](O)[C@H](O[C@@H]7O[C@H](CO)[C@H](O)[C@H](O)[C@H]7O)[C@H]6O)[C@@](C)(CO)[C@@H]5CC[C@]43C)[C@@H]2C1`, for which, in data set [1], the HD100 stood at 514 µM and the HC50 amounted to 309 µM.

On to `CC1(C)CC[C@]2(C(=O)O)CC[C@]3(C)C(=CC[C@@H]4[C@@]5(C)C[C@H](O)[C@H](O[C@@H]6O[C@H](C(=O)O)[C@@H](O)[C@H](O[C@@H]7O[C@H](CO)[C@H](O)[C@H](O)[C@H]7O)[C@H]6O)[C@@](C)(CO)[C@@H]5CC[C@]43C)[C@@H]2C1`, for which, in data set [1], the HD100 amounted to 121 µM and the HC50 came out at 66 µM.

In the case of `CC1(C)CC[C@]2(C(=O)O)CC[C@]3(C)C(=CC[C@@H]4[C@@]5(C)C[C@H](O)[C@H](O[C@@H]6O[C@H](CO)[C@@H](O)[C@H](O[C@@H]7O[C@H](CO)[C@H](O)[C@H](O)[C@H]7O)[C@H]6O)[C@@](C)(CO)[C@@H]5CC[C@]43C)[C@@H]2C1`, in data set [1], the HD100 is 24 µM and the HC50 was found to be 18 µM.

On to `CC1(C)CC[C@]2(C(=O)O)CC[C@]3(C)C(=CC[C@@H]4[C@@]5(C)CC[C@H](O[C@@H]6O[C@H](CO)[C@@H](O)[C@H](O[C@@H]7O[C@H](CO)[C@H](O)[C@H](O)[C@H]7O)[C@H]6O)[C@@](C)(CO)[C@@H]5CC[C@]43C)[C@@H]2C1`, for which, in data set [1], the HD100 worked out at 94 µM and the HC50 is 56 µM.

As for `CC1(C)CC[C@]2(C(=O)O)CC[C@]3(C)C(=CC[C@@H]4[C@@]5(C)C[C@H](O)[C@H](O[C@@H]6O[C@H](C(=O)O)[C@@H](O)[C@H](O[C@@H]7O[C@H](CO)[C@H](O)[C@H](O)[C@H]7O)[C@H]6O)C(C)(C)[C@@H]5CC[C@]43C)[C@@H]2C1`, in data set [1], the HD100 amounted to 49 µM and the HC50 was 32 µM.

Regarding `CC1(C)CC[C@]2(C(=O)O)CC[C@]3(C)C(=CC[C@@H]4[C@@]5(C)CC[C@H](O[C@@H]6O[C@H](C(=O)O)[C@@H](O)[C@H](O[C@@H]7O[C@H](CO)[C@H](O)[C@H](O)[C@H]7O)[C@H]6O)C(C)(C)[C@@H]5CC[C@]43C)[C@@H]2C1` [GLYCOSIDE D], in data set [1], the HD100 stood at 31 µM and the HC50 was 19 µM.
